Measurements from patent publication US7456192B2, “3β-amino azabicyclooctane heteroaromatic amid derivatives preparation method and therapeutic uses thereof” (Pierre Fabre Medicament, priority 2001, dated 2008).
Where a name gives a salt, the structure may show the parent alone. Read-outs that look alike come from different tables or passages of the source. Marks after values point to notes of the source that are not given here.

What was measured:
[1] = system: methylphenidate-induced behavior; test: Antagonism of methylphenidate-induced behavior in rats (chewing inhibition, normalization); type: in vivo, rat
Experimental: The compounds were tested in vivo (Table II) to measure their ability to antagonize methylphenidate-induced behavior in rats. […] Colpaert J. Pharmacol. Exp. Ther. 267, 181 (1993). This test characterizes the antipsychotic activity in a more in-depth manner than apomorphine effect antagonism, the test conventionally used.

[2] = Cataleptic activity in rats, compound alone without methylphenidate; details: rat, in vivo
[3] = target: T1, D2 type central dopaminergic receptor (Homo sapiens, UniProt P14416); test: biochemical
catalepsy = test: Cataleptic activity in rats, compound alone without methylphenidate; details: rat, i.p.; 3 or 5 animals
[4] = target: T1, D2 type central dopaminergic receptor; details: radioligand 3H-YM-09151-2
[5] = ip, rat, i.p., 3 or 5 animals, read-out: Chewing inhibition ED50
[6] = ip, rat, i.p., 3 or 5 animals, read-out: Normalization ED50
[7] = Rattus norvegicus, ip, read-out: Chewing inhibition ED50
[8] = Rattus norvegicus, ip, read-out: Normalization ED50
[9] = Rattus norvegicus, po, read-out: Chewing inhibition ED50
[10] = Rattus norvegicus, po, read-out: Normalization ED50

T1 sequence (P14416 whole entry): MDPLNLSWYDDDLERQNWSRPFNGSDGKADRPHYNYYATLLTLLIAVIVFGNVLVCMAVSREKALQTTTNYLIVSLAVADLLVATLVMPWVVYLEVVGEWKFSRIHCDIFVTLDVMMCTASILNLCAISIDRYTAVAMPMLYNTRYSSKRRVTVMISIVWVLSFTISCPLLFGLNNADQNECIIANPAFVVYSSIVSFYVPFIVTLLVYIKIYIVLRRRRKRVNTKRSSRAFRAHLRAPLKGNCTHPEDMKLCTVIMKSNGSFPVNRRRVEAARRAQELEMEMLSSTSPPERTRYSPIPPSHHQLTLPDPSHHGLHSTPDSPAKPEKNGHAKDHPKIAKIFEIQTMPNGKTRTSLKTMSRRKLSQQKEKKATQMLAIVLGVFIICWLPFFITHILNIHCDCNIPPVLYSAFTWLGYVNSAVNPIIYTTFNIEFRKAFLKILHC

Compound | ED50 ([2]; ip) | ED50 [1, 7] | ED50 [1, 8] | Ki [3] | further results
CCN1CCCC1CNC(=O)c1cc(S(N)(=O)=O)ccc1OC (stereo not shown) [Sulpiride, reference compound] | > 160 mg/kg |  |  |  | ED50 [1, 5]: > 40 mg/kg; ED50 [1, 6]: > 40 mg/kg
O=C(CCCN1CCC(O)(c2ccc(Cl)cc2)CC1)c1ccc(F)cc1 [Haloperidol, reference compound] | 0.32 mg/kg |  |  |  | ED50 [1, 5]: 0.08 mg/kg; ED50 [1, 6]: 0.32 mg/kg
COc1c(C(=O)N[C@@H]2C[C@H]3CC[C@@H](C2)N3Cc2ccccc2)oc2cccnc12 [Example 4, 3-Methoxyfuro[3,2-b]pyridine-2-carboxylic acid (8-benzyl-8-azabicyclo[3.2.1]oct-3β-yl)amide dihydrochloride] | > 40 mg/kg | 0.12 mg/kg | 0.98 mg/kg | 2.04 nM | 
COc1c(C(=O)N[C@@H]2C[C@H]3CC[C@@H](C2)N3CC2CCCCC2)sc2ncccc12 [Example 10, 3-Methoxythieno[2,3-b]pyridine-2-carboxylic acid [8-cyclohexylmethyl-8-azabicyclo[3.2.1]oct-3β-yl]amide fumarate] | > 40 mg/kg | 1.25 mg/kg | 5 mg/kg | 2.57 nM | 
COc1cccc(C(=O)N[C@@H]2C[C@H]3CC[C@@H](C2)N3Cc2ccccc2)c1OC [Tropapride, reference compound] |  |  |  |  | Chewing inhibition ED50 ([1]; rat, i.p., 3 or 5 animals): 0.0059^a mg/kg; Normalization ED50 ([1]; rat, i.p., 3 or 5 animals): 0.017^a mg/kg; Catalepsy ED50 (catalepsy): 0.015^a mg/kg; D2 affinity (pKi) [4]: 10.02
COc1c(C(=O)N[C@@H]2C[C@H]3CC[C@@H](C2)N3Cc2ccc(F)cc2)sc2ncccc12 [Example 11, 3-Methoxythieno[2,3-b]pyridine-2-carboxylic acid [(8-(4-fluorobenzyl)-8-azabicyclo[3.2.1]oct-3β-yl)]amide hydrochloride] | > 40 mg/kg | 0.08 mg/kg | 0.31 mg/kg | 0.776 nM | 
COc1c(C(=O)N[C@@H]2C[C@H]3CC[C@@H](C2)N3Cc2ccc(Cl)cc2)sc2ncccc12 [Example 8, 3-Methoxythieno[2,3-b]pyridine-2-carboxylic acid [8-(4-chlorobenzyl)-8-azabicyclo[3.2.1]oct-3β-yl]amide hydrochloride] | > 40 mg/kg | 0.1 mg/kg | 1.3 mg/kg | 1.74 nM | 
COc1c(C(=O)N[C@@H]2C[C@H]3CC[C@@H](C2)N3Cc2ccccc2)sc2nccnc12 [Example 27, 3-Methoxythieno[2,3-b]pyrazine-2-carboxylic acid (8-benzyl-8-azabicyclo[3.2.1]oct-3β-yl)amide hydrochloride] |  |  |  | 0.437 nM | ED50 [1, 9]: 0.27 mg/kg; ED50 [1, 10]: 0.67 mg/kg; ED50 ([2]; po): 9.5 mg/kg
CSc1c(C(=O)N[C@@H]2C[C@H]3CC[C@@H](C2)N3Cc2ccccc2)sc2ncccc12 [Example 2, 3-Methylsulfanylthieno[2,3-b]pyridine-2-carboxylic acid (8-benzyl-8-azabicyclo[3.2.1]oct-3β-yl)amide hydrochloride] | 1.8 mg/kg | 0.08 mg/kg | 0.56 mg/kg | 0.447 nM | 
CSc1c(C(=O)N[C@@H]2C[C@H]3CC[C@@H](C2)N3Cc2ccc(Cl)cc2)sc2nccnc12 [Example 31, 3-Methylsulfanylthieno[2,3-b]pyrazine-2-carboxylic acid [8-(4-chlorobenzyl)-8-azabicyclo[3.2.1]oct-3β-yl]amide hydrochloride] |  |  |  | 2.04 nM | ED50 [1, 9]: 0.31 mg/kg; ED50 [1, 10]: 0.31 mg/kg; ED50 ([2]; po): 1.25 mg/kg
Cc1nc2n(c(=O)c1CCN1CCC(c3noc4cc(F)ccc34)CC1)CCCC2 [Risperidone, reference compound] |  | 0.25 mg/kg | 2.8 mg/kg |  | 
CSc1c(C(=O)N[C@@H]2C[C@H]3CC[C@@H](C2)N3Cc2ccc(F)cc2)sc2nccnc12 [Example 32, 3-Methylsulfanylthieno[2,3-b]pyrazine-2-carboxylic acid [8-(4-fluorobenzyl)-8-azabicyclo[3.2.1]oct-3β-yl]amide hydrochloride] |  |  |  | 0.676 nM | ED50 [1, 9]: 0.08 mg/kg; ED50 [1, 10]: 0.31 mg/kg; ED50 ([2]; po): 1.25 mg/kg
COc1c(C(=O)N[C@@H]2C[C@H]3CC[C@@H](C2)N3Cc2ccc(F)cc2)sc2nccnc12 [Example 29, 3-Methoxythieno[2,3-b]pyrazine-2-carboxylic acid [8-(4-fluorobenzyl)-8-azabicyclo[3.2.1]oct-3β-yl]amide hydrochloride] |  |  |  | 0.661 nM | ED50 [1, 9]: 0.08 mg/kg; ED50 [1, 10]: 0.32 mg/kg; ED50 ([2]; po): 5 mg/kg
COc1c(C(=O)N[C@@H]2C[C@H]3CC[C@@H](C2)N3Cc2ccsc2)sc2ncccc12 [Example 12, 3-Methoxythieno[2,3-b]pyridine-2-carboxylic acid [8-thiophen-3-ylmethyl-8-azabicyclo[3.2.1]oct-3β-yl]amide hydrochloride] | > 40 mg/kg | 1.25 mg/kg | 1.25 mg/kg | 2.57 nM | 
